PubChem BioAssay (NCI)
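How tested: cells in 96-well plates exposed to compound for 48 hours at five concentrations. TGI: concentration producing complete growth inhibition.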 Where a SMILES comes first, the peptide text is derived from it. [ ]: non-standard residue; d: D form. The star is where a group is joined. Bn2Val = CC(C)[C@@H](C(=O)*)N(Cc1ccccc1)Cc1ccccc1; NH(3,4-diMeO-benzyl) = COc1ccc(CN*)cc1OC; NMeV = CN[C@H](C(=O)O)C(C)C

Assays:
Test in all cases: NCI-60 cell line screen, 48 h
786-0 renal = tested on: 786-0 renal
ACHN renal = tested on: ACHN renal
DU-145 prostate = tested on: DU-145 prostate
HCT-116 colon = tested on: HCT-116 colon
HCT-15 colon = tested on: HCT-15 colon
HS 578T breast = tested on: HS 578T breast
K-562 leukemia = tested on: K-562 leukemia
KM12 colon = tested on: KM12 colon
LOX IMVI melanoma = tested on: LOX IMVI melanoma
M14 melanoma = tested on: M14 melanoma
MDA-MB-231 breast = tested on: MDA-MB-231 breast
MDA-MB-435 = tested on: MDA-MB-435
RXF 393 renal = tested on: RXF 393 renal
SK-MEL-28 melanoma = tested on: SK-MEL-28 melanoma
SK-MEL-5 melanoma = tested on: SK-MEL-5 melanoma
SK-OV-3 ovarian = tested on: SK-OV-3 ovarian
SW-620 colon = tested on: SW-620 colon
UACC-257 melanoma = tested on: UACC-257 melanoma
UO-31 renal = tested on: UO-31 renal

Structure (SMILES)	TGI (786-0 renal) [µM]	TGI (ACHN renal) [µM]	TGI (DU-145 prostate) [µM]	TGI (HCT-116 colon) [µM]	TGI (HCT-15 colon) [µM]	TGI (HS 578T breast) [µM]	TGI (K-562 leukemia) [µM]	TGI (KM12 colon) [µM]	TGI (LOX IMVI melanoma) [µM]	TGI (M14 melanoma) [µM]	TGI (MDA-MB-231 breast) [µM]	TGI (MDA-MB-435) [µM]	TGI (RXF 393 renal) [µM]	TGI (SK-MEL-28 melanoma) [µM]	TGI (SK-MEL-5 melanoma) [µM]	TGI (SK-OV-3 ovarian) [µM]	TGI (SW-620 colon) [µM]	TGI (UACC-257 melanoma) [µM]	TGI (UO-31 renal) [µM]
CCn1c2ccccc2c2cc(NC(=O)c3c(NCCNCCO)nc(=O)[nH]c3C)ccc21	> 100	> 100	> 100	> 100	> 100	> 100	> 100	> 100	> 100	> 100	> 100	> 100	> 100	> 100	> 100	> 100	> 100	> 100	> 100
O=C(O)c1ccc(NNC(=O)c2cccc3c(=O)c4ccccc4[nH]c23)cc1	> 100	> 100	> 100	> 100	> 100	> 100	> 100	> 100	> 100	> 100	> 100	> 100	> 100	> 100	> 100	> 100	> 100	> 100	> 100
CCN(CC)C(=S)SS(=O)(=O)c1ccc(NC(C)=O)cc1	36.5	> 88.8	> 75.4	31.1	> 100	> 100	> 100	> 100	31.8	33	36.4	33.4	33	39.2	20.9	> 100	32	58.7	42.6
CCc1ccccc1NC(=O)C(=O)CC(=O)c1sc(Nc2ccccc2Cl)nc1C	90.9	> 100	> 100	50.4	92	> 100	> 100	> 100	44	63.7	> 100	66.4	74.2	> 100	52.4	63.3	69.9	> 100	> 100
COc1cccc(C2c3cc4c(cc3OC(N3CCCCC3)C2C)OCO4)c1OC (configuration not stated)	> 100	35.1	25.5	12.1	26.3	29.5	20.7	23.8	20.1	47.1	41	33.8	28.2	46.7	21.5	> 100	68.9	36.2	48.6
Cn1c(=O)c2c(nc3n(C)c(=O)c4ccccc4n23)n(C)c1=O	> 100	66.7	> 83.6	> 100	> 100	> 100	> 100	> 100	> 100	> 100	> 100	> 100	> 100	> 100	> 100	> 100	> 100	> 100	> 100
N#CC(c1ccccc1)N(CCOCCOCCN(C(=O)c1cccc2ccccc12)C(C#N)c1ccccc1)C(=O)c1cccc2ccccc12 (configuration not stated)	> 100	> 100	> 100	> 100	> 100	> 100	> 100	> 100	> 100	> 100	> 100	> 100	> 100	> 100	> 100	> 100	> 100	> 100	> 100
O=[N+]([O-])c1ccc(C(=Nc2ccccc2)SSC(=Nc2ccccc2)c2ccc([N+](=O)[O-])o2)o1	4.08	5.21	3.6	2.95	2.2	5.34	–	4.15	3.83	4.85	7.92	6.17	4.55	7.04	20.9	14.3	–	> 21.9	2.82
Cc1cc(O)c2c(c1)CC(O)C1=C2C(=O)c2c(O)ccc(OC3CC(O)C(OC4CC(OC5CCC(O)C(C)O5)C(O)C(C)O4)C(C)O3)c2C1=O (configuration not stated)	3.47	2.95	3.19	3.47	4.64	6.36	6.98	4.46	2.89	3.04	3.58	2.82	3.02	3.86	2.78	6.71	3.14	2.93	3.23
O=C(CC(=O)N1N=C(N(c2ccccc2)c2ccccc2)CC1c1ccccc1)Nc1ccccc1 (configuration not stated)	> 100	> 100	> 100	> 100	> 100	> 100	> 100	> 100	–	> 100	> 100	> 100	> 100	> 100	> 100	> 100	> 100	> 100	> 100
c1cc(C[S+]2CCCC2)sc1C[S+]1CCCC1	> 100	> 100	> 100	> 100	> 100	> 100	> 100	> 100	> 100	> 100	> 100	> 100	> 100	–	> 100	> 100	> 100	> 100	> 100
CC(=O)CCC[C@H](C)[C@@H](O)[C@@H]1O[C@H]([C@@]2(C)CCC(=O)O2)C[C@H]1C(=O)O	> 100	> 100	> 100	> 100	> 100	> 100	> 100	> 100	> 100	–	> 100	> 100	> 100	> 100	> 100	> 100	> 100	> 100	> 100
COC(=O)C1(C(=O)OC)CC2=C(S(=O)(=O)c3ccccc3)C[C@H](C#N)[C@H]2C1	> 100	> 100	> 100	> 100	> 100	> 100	–	> 100	> 100	> 100	> 100	> 100	> 100	> 100	> 100	> 100	> 100	> 100	> 100
C#CCCOC(=O)c1ccccc1OC(C)=O	> 100	> 100	> 100	> 100	> 100	> 100	> 100	> 100	> 100	> 100	> 100	> 100	> 100	–	> 100	> 100	> 100	> 100	> 100
C=CCC1C(=O)Nc2cccc3ncn(c23)C1=O (configuration not stated)	> 100	> 100	> 100	> 100	> 100	> 100	> 100	> 100	–	> 100	> 100	> 100	> 100	> 100	> 100	> 100	> 100	> 100	> 100
CC1c2cc(c3c(c2O)CN([C@@H](C)C2CCCCC2)CO3)C(C)c2cc(c3c(c2O)CN([C@@H](C)C2CCCCC2)CO3)C(C)c2cc(c3c(c2O)CN([C@@H](C)C2CCCCC2)CO3)C(C)c2cc1c1c(c2O)CN([C@@H](C)C2CCCCC2)CO1 (some centres not stated)	2.4	2.78	2.64	2.04	2.92	3.15	2.01	2.15	–	> 23.7	2.7	3.62	> 100	3.55	3.46	2.72	–	3.24	3.21
O=c1cc(-c2cccc(OCc3ccccc3)c2)[nH]c2cc3c(cc12)OCO3	3.98	64.3	> 100	> 100	–	3.02	> 100	> 100	> 100	> 84.5	9.03	0.36	8.15	> 100	> 100	4.23	> 100	> 100	16
O=C1COCCN1C(=O)c1ccccc1Cl	> 100	> 100	> 100	> 100	> 100	> 100	> 100	> 100	> 100	> 100	> 100	> 100	> 100	> 100	> 100	–	> 100	> 100	> 100
COC(=O)[C@H](COC(=O)/C=C/c1ccc(OC(C)=O)c(OC(C)=O)c1)NC(=O)/C=C/c1ccc(OC(C)=O)c(OC(C)=O)c1	32.1	42.2	29.4	36.2	70.6	49.7	> 100	36.6	95.6	54.3	36.8	45.5	> 100	94	31.6	54.3	> 100	42.1	–
COc1cc2c(cc1OC)C(=O)/C(=C/c1ccc([N+](=O)[O-])cc1)CC2	> 10	> 10	> 10	> 10	> 10	> 10	> 10	> 10	> 10	> 10	> 10	> 10	> 10	> 10	> 10	> 10	> 10	> 10	–
O=C(c1ccccc1)C1C[C@H]2CO[C@H](c3ccccc3)N2C1=O (some centres not stated)	> 100	> 100	> 100	> 100	> 100	> 100	> 100	> 100	> 100	> 100	> 100	> 100	> 100	> 100	> 100	–	> 100	> 100	> 100
CC(C)N1[C@@H]2CCCC[C@H]2N(C(C)C)P1(=O)C(=O)/C=C/c1ccccc1	3.36	8.62	4.94	3.73	4.14	4.94	> 100	10.2	4.55	5.49	8.74	3.74	3.46	8.87	3.44	–	–	13.5	3.13
COc1ccc(CNC(=O)[C@@H]2CCCN2C(=O)[C@@H]2CCCN2C(=O)[C@H](C(C)C)N(C)C(=O)[C@@H](NC(=O)[C@H](C(C)C)N(Cc2ccccc2)Cc2ccccc2)C(C)C)cc1OC (Bn2Val-V[NMeV]PP-{NH(3,4-diMeO-benzyl)})	26.5	28	30.1	29.5	31.4	> 100	> 100	51.5	16.4	29.4	42.3	39	26.7	38.5	20.4	31.4	> 60.8	42.9	–
CCOC(=O)c1cc(C#N)[nH]c1-c1ccsc1	> 100	> 100	58.8	> 100	> 100	55.8	93	69.6	> 100	> 100	> 100	51.9	51.3	> 100	> 100	> 100	> 100	> 100	–
